Assay results from PubChem BioAssay (NCI).
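All cell lines were grown in 96-well plates and treated with compound for 48 hours. The concentration for 50% growth inhibition is given as GI50. TGI marks complete inhibition of growth.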

Key:
Experiment in all cases: inhibition of tumour cell growth, NCI panel, 48 h
[1] = test system: 786-0 renal
[2] = test system: A549 NSCLC
[3] = test system: NCI-H460 lung
[4] = test system: NCI/ADR-RES ovarian
[5] = test system: PC-3 prostate
[6] = test system: RXF 393 renal
[7] = test system: SF-295 CNS
[8] = test system: TK-10 renal
[9] = test system: A498 renal
[10] = test system: MALME-3M melanoma

Structure (SMILES)	GI50 [1] [µM]	TGI [1] [µM]	GI50 [2] [µM]	TGI [2] [µM]	GI50 [3] [µM]	TGI [3] [µM]	GI50 [4] [µM]	TGI [4] [µM]	GI50 [5] [µM]	TGI [5] [µM]	GI50 [6] [µM]	TGI [6] [µM]	GI50 [7] [µM]	TGI [7] [µM]	GI50 [8] [µM]	TGI [8] [µM]	TGI [9] [µM]	TGI [10] [µM]	GI50 [10] [µM]	GI50 [9] [µM]
COC(=O)CC[C@]1(C)O[C@H]2[C@H]([C@@H](C)CCCC(C)=O)OC(=O)[C@@H]2C[C@H]1O	> 100	> 100	> 100	> 100	> 100	> 100	> 100	> 100	> 100	> 100	60.1	> 100	> 100	> 100	68.7	> 100	–	–	–	–
C=C(C#N)C1OCC2OC(C)(C)OC21 (centres undefined)	–	39.4	–	> 100	–	57.4	–	–	–	–	–	31.3	–	> 100	–	58.5	51.2	–	–	–
COc1ccc(/C(=N\NC(=O)C(=O)NN)C(c2ccc(OC)cc2)C2(O)C(=O)Nc3ccccc32)cc1 (centres undefined)	–	> 100	–	> 100	–	> 100	–	–	–	–	–	–	–	–	–	> 100	> 100	> 100	–	–
O=C1CC(=O)N(C(=O)c2nn(-c3ccc(Cl)cc3)cc2O)N1	3.76	> 64.5	0.36	> 100	0.345	> 100	1.16	> 100	0.36	> 100	0.191	> 47	0.17	> 100	0.35	> 65.2	–	46.5	0.703	–
NC(=O)CCC(Nc1c2ccccc2nc2ccccc12)C(=O)O (centres undefined)	–	> 100	–	> 100	–	> 100	–	–	–	–	–	> 100	–	> 100	–	> 100	–	> 100	–	–
COc1ccc2c3c([nH]c2c1[N+](=O)[O-])C(C)N(Cc1ccc([N+](=O)[O-])cc1)CC3 (centres undefined)	–	> 100	–	> 100	–	34.7	–	–	–	–	–	57.1	–	43	–	> 100	63.7	–	–	–
C=C1C(=O)OC2C1CCC(C)C1C=CC(=O)C12C (centres undefined)	–	4.19	–	41.9	–	18.9	–	–	–	17.3	–	4.39	–	18.1	–	10.6	26.7	7.47	–	–
C=C1C(C2(C)C(OC(C)=O)CC(=O)OC(C)(COC(C)=O)C2CC(=O)OC)C(OC=O)C(OC(=O)C(O)C(C)CC)C2(C)C(c3ccoc3)CC(=O)C12O (centres undefined)	–	> 100	–	> 100	–	> 21.8	–	> 100	–	> 100	–	6.48	–	> 100	–	> 100	> 29.3	–	–	–
O=C(Nc1ccc(Cl)cc1Cl)C1C(=O)C(=O)N(c2ccc(Cl)cc2Cl)C1=O (centres undefined)	–	> 100	–	> 100	–	> 100	–	–	–	–	–	> 100	–	–	–	> 100	> 100	> 100	–	–
C#CCOCn1cnc2c(Sc3c([N+](=O)[O-])ncn3C)ncnc21	–	> 100	–	> 100	–	> 100	–	–	–	–	–	> 100	–	> 100	–	> 100	> 100	> 100	–	–
CCOC(=O)/C(=C\c1ccc(N(CCC#N)CCC#N)cc1)NC(=O)c1cc([N+](=O)[O-])ccc1Cl	–	> 100	–	> 100	–	> 100	–	–	–	–	–	> 100	–	> 100	–	> 100	> 100	> 100	–	–
CC1=C[C@]2(O)C(=O)[C@H](C)C[C@H]3[C@@H](CC[C@@](C)(O)/C=C\2C1=O)C3(C)C	–	39.5	–	> 100	–	> 57.6	–	–	–	–	–	19.8	–	75.8	–	> 78.7	47.2	54.4	–	–
Cn1nc(-c2ccccc2)c(C(=O)/C=C/c2ccc(Cl)cc2)c(N2CCCCC2)c1=O	–	3.67	–	8.65	–	7.4	–	–	–	–	–	2.8	–	2.14	–	14.3	–	–	–	–
CC(=O)c1cccc(C)c1C(=O)O	–	> 100	–	> 100	–	> 100	–	–	–	–	–	> 100	–	> 100	–	> 100	> 100	> 100	–	–
CCOc1ccc(N=Cc2ccc3cc(C)ccc3n2)cc1	–	> 100	–	> 100	–	> 100	–	–	–	–	–	> 100	–	> 100	–	> 100	> 100	> 100	–	–
O=C1C=CC(=O)C12CCc1ccccc12	–	> 100	–	> 100	–	> 100	–	–	–	–	–	> 100	–	> 31.6	–	> 100	> 100	> 100	–	–
NC1CCC(Nc2nc(NCc3ccc(-c4ccccc4O)nc3)c3ncn(C4CCCC4)c3n2)CC1 (centres undefined)	0.0293	1.06	< 0.01	1.18	0.0337	1.17	0.135	2.18	0.0275	1.02	0.0144	0.0356	0.0295	0.219	0.0306	1.33	0.0656	–	–	0.0233
CC(C)(C)CC(C)(C)c1cc2c(O)c(c1)Cc1cc(C(C)(C)CC(C)(C)C)cc(c1O)Cc1cc(C(C)(C)CC(C)(C)C)cc(c1O)Cc1cc(C(C)(C)CC(C)(C)C)cc(c1O)Cc1cc(C(C)(C)CC(C)(C)C)cc(c1O)C2	–	> 100	–	> 100	–	> 100	–	–	–	–	–	> 100	–	> 100	–	> 100	–	> 100	–	–
O=C(CCc1nnc2s/c(=C\c3ccc(Cl)c(Cl)c3)c(=O)n12)Nc1ccc(Cl)c(Cl)c1	–	> 100	–	> 100	–	> 100	–	–	–	–	–	74	–	> 100	–	> 100	> 100	> 100	–	–
CC(C)[O-].CC(C)[O-].O=C1C=C([O-])C(=O)c2ccccc21.O=C1C=C([O-])C(=O)c2ccccc21.[Ti+4]	> 86.4	> 100	47.2	> 100	15.3	> 100	–	–	–	–	> 85.3	> 100	28.1	> 100	> 100	> 100	> 100	> 100	14.7	> 100
